Test results reported in ChEMBL document CHEMBL1156829 (Proc Natl Acad Sci U S A, 2008).
“And” between values parts separate entries of the source, which are not always exact repeats. Equal entries are not always repeated. Structures can show the parent of a compound that is named as a salt.

Tests used:
[1] = test system: Huh-7; assay: (§1) NOVARTIS: Cytotoxicity against human hepatocellular carcinoma cell line (Huh7); assay type: toxicity, cell-based; conditions: huh-7, read-out: CC50
[2] = test system: Plasmodium falciparum; assay: NOVARTIS: Inhibition of Plasmodium falciparum 3D7 (drug-susceptible) proliferation in erythrocyte-based infection assay; assay type: functional, organism-based
[3] = test system: Plasmodium falciparum; assay: NOVARTIS: Inhibition of Plasmodium falciparum W2 (drug-resistant) proliferation in erythrocyte-based infection assay; assay type: functional, organism-based; conditions: read-out: EC50
[4] = as §1; assay type: toxicity, cell-based, Huh-7; conditions: Huh7 cells (hepatocellular carcinoma cell line)

| SMILES | CC50 [1] | EC50 [2] | EC50 ([3]; Plasmodium falciparum, W2) | EC50 [3] | EC50 ([2]; Plasmodium falciparum, 3D7) | CC50 [4] |
| --- | --- | --- | --- | --- | --- | --- |
| Cn1cc(/C=C/c2cc[n+](C)cc2)c2ccccc21 | 7700 nM | 216 nM |  |  |  |  |
| CC[n+]1c(/C=C2\Sc3ccccc3N2CCO)ccc2cc(C)ccc21 | > 10000 nM and 56300 nM |  | > 248 nM | 142 nM |  |  |
| CCN1C(=Cc2sc3ccccc3[n+]2CC)[Se]c2ccccc21 | 5340 nM and 11800 nM | 156 nM |  |  | 230 nM |  |
| CC[n+]1c(/C=C2\Sc3ccc(C)cc3N2CCO)ccc2ccccc21 | > 10000 nM and 29400 nM |  |  |  |  |  |
| Cc1ccc(N=C2S/C(=C\c3c(Cl)cccc3Cl)C(=O)N2c2ccc(C)c(C)c2)cc1C | > 100000 nM |  |  | 1340 nM and 4810 nM |  |  |
| Cc1ccc2c(c1)N(C)/C(=C/c1cccc[n+]1C)S2 | > 10000 nM and 22700 nM | 825 nM |  |  |  |  |
| Cc1cc(C)cc(-n2c(C)cc(/C=C3\SC(=Nc4ccc(Cl)cc4)NC3=O)c2C)c1 | > 100000 nM |  |  | 81.1 nM and 704 nM |  |  |
| Cc1cc(/C=C2\SC(=Nc3ccccc3)NC2=O)c(C)n1-c1ccccc1 | > 99700 nM |  |  | 12.8 nM and 86.2 nM |  |  |
| C/C(C=C1Sc2ccc3ccoc3c2N1CCO)=C\c1sc2ccc3occc3c2[n+]1CCO | > 100000 nM | 6890 nM and 1540 nM |  |  |  |  |
| CC[n+]1c(/C=C2\Sc3cc(NC(C)=O)ccc3N2C)ccc2ccccc21 | > 100000 nM | 373 nM and 72.2 nM |  |  |  |  |
| CC[n+]1c(/C=C2\Sc3ccc(OC)cc3N2C)ccc2cc(C)ccc21 | > 10000 nM and 21800 nM |  |  | 331 nM and 52 nM |  |  |
| CN(C)c1ccc(C=Cc2cccc[n+]2C)cc1 | 3030 nM and > 10000 nM | 314 nM |  |  | 248 nM |  |
| CCOc1ccc(/C=C2/SC(=Nc3ccccc3)NC2=O)cc1OC | > 100000 nM | 662 nM and 1530 nM |  |  |  |  |
| CS[C@H]1SC[C@H]2C(=O)N(C)[C@@H](C(C)C)C(=O)OC[C@@H](NC(=O)c3cnc4ccccc4n3)C(=O)N[C@@H](C)C(=O)N(C)[C@@H]1C(=O)N(C)[C@@H](C(C)C)C(=O)OC[C@@H](NC(=O)c1cnc3ccccc3n1)C(=O)N[C@@H](C)C(=O)N2C [ECHINOMYCIN] |  |  | 524 nM |  | 73.7 nM | > 10000 nM |
| CCC(Cc1cnc2nc(N)nc(N)c2n1)c1ccc(C(=O)N[C@@H](CCC(=O)O)C(=O)O)cc1 (stereo partly specified) [EDATREXATE] |  |  | 108 nM |  | 14.8 nM | 30.4 nM |
| CC[C@H]1CN2CCc3cc(OC)c(OC)cc3[C@@H]2C[C@@H]1C[C@H]1NCCc2cc(OC)c(OC)cc21 [EMETINE] |  |  | 22.9 nM |  | 10.1 nM | 116 nM |
| O=C1c2ccccc2-[n+]2ccc3c([nH]c4ccccc43)c21 [FASCAPLYSIN CHLORIDE] |  |  | 46.4 nM |  | 74.9 nM | 589 nM |
| CN(C)c1ccc(C(=C2C=CC(=[N+](C)C)C=C2)c2ccc(N(C)C)cc2)cc1 [GENTIAN VIOLET] |  |  | 170 nM |  | 22.1 nM | 1430 nM |
| CCn1ccnc1CC1COc2ccccc2O1 (stereo unspecified) [IMILOXAN HYDROCHLORIDE] |  |  | 443 nM |  | > 1040 nM | > 10000 nM |
| COc1cc2c(cc1O)CC[n+]1cc3c(OC)c(OC)ccc3cc1-2 [JATRORRHIZINE CHLORIDE] |  |  | 1660 nM |  | 939 nM | 8940 nM |
| CCCCN(CCCC)CC(O)c1cc(Cl)cc2c1-c1ccc(Cl)cc1/C2=C/c1ccc(Cl)cc1 (stereo unspecified) [LUMEFANTRINE] |  |  | 518 nM |  | 777 nM | > 10000 nM |
| O[C@H]1[C@H]2c3cc4c(cc3CN3CCC(=C[C@@H]1O)[C@H]23)OCO4 [LYCORINE] |  |  | 156 nM |  | 607 nM | 66100 nM |
| OC(c1cc(C(F)(F)F)nc2c(C(F)(F)F)cccc12)C1CCCCN1 (stereo unspecified) [MEFLOQUINE] |  |  | 8.14 nM |  | 24.8 nM | 18800 nM |
| O=C(NCCN1CCOCC1)c1ccc(Cl)cc1 [MOCLOBEMIDE] |  |  | > 1250 nM |  | > 740 nM | > 10000 nM |
| Cc1ccc2ccc3ccc(C)nc3c2n1 [NEOCUPROINE] |  |  | 24.3 nM |  | 97.1 nM | > 100000 nM |

| SMILES | CC50 [1] | EC50 [2] | EC50 ([3]; Plasmodium falciparum, W2) | EC50 [3] | EC50 ([2]; Plasmodium falciparum, 3D7) | CC50 [4] |
| --- | --- | --- | --- | --- | --- | --- |
| CCCCCCCCCCCC(OC(=O)C(CCCCN(O)C(C)=O)NC(=O)c1coc(-c2ccccc2O)n1)C(C)C(=O)NC1CCCCN(O)C1=O (stereo unspecified) [NOCARDIMICIN B] |  |  | 2.24 nM |  | > 864 nM | > 10000 nM |
| C[C@@H]1C[C@H]2CC[C@H](O2)[C@H](C)C(=O)O[C@@H](C)C[C@@H]2CC[C@@H](O2)[C@@H](C)C(=O)O[C@H](C)C[C@H]2CC[C@@H](O2)[C@H](C)C(=O)O[C@@H](C)C[C@@H]2CC[C@@H](O2)[C@@H](C)C(=O)O1 [NONACTIN] |  |  | 359 nM |  | 433 nM | 3530 nM |
| NC(=O)CN1CC(O)CC1=O (stereo unspecified) [OXIRACETAM] |  |  | 6220 nM |  | 5960 nM | 57500 nM |
| COc1cc2c(cc1OC)-c1cc3ccc(OC)c(OC)c3c[n+]1CC2 [PALMATINE CHLORIDE] |  |  | 766 nM |  | 697 nM | > 100000 nM |
| C/C(=C\c1csc(C)n1)[C@@H]1C[C@@H]2O[C@]2(C)CCC[C@H](C)[C@H](O)[C@@H](C)C(=O)C(C)(C)[C@@H](O)CC(=O)O1 [PATUPILONE] |  |  | > 1250 nM |  | 4.09 nM | > 6250 nM |
| N=C(N)c1ccc(OCCCCCOc2ccc(C(=N)N)cc2)cc1 [PENTAMIDINE] |  |  | 68.7 nM |  | 66.2 nM | > 6250 nM |
| O=C1C(=O)c2ncccc2-c2cccnc21 [PHANQUONE] |  |  | 369 nM |  | 644 nM | 5910 nM |
| O=C(Nc1ccc(Cl)cc1)Oc1ccccc1 [PHENYL 4-CHLOROPHENYLCARBAMATE] |  |  | 2010 nM |  | > 12500 nM | 51900 nM |
| COC(=O)[C@]1(C)CC[C@]2(C)CC[C@]3(C)C4=CC=C5C(=CC(=O)C(O)=C5C)[C@]4(C)CC[C@@]3(C)[C@@H]2C1 [PRISTIMERIN] |  |  | > 820 nM |  | > 1250 nM | > 6250 nM |
| CC(C)NCC(O)c1ccc2ccccc2c1 (stereo unspecified) [PRONETALOL] |  |  | 366 nM |  | 455 nM | 13100 nM |
| CCCNCC(O)COc1ccccc1C(=O)CCc1ccccc1 (stereo unspecified) [PROPAFENONE] |  |  | 116 nM |  | 252 nM | 28900 nM |
| COc1ccc(C[C@H](N)C(=O)N[C@H]2[C@@H](O)[C@H](n3cnc4c(N(C)C)ncnc43)O[C@@H]2CO)cc1 [PUROMYCIN] |  |  | 328 nM |  | 611 nM | 6630 nM |
| CCc1nc(N)nc(N)c1-c1ccc(Cl)cc1 [PYRIMETHAMINE] |  |  | 14.6 nM |  | 31.9 nM | 45600 nM |
| CCN(CC)CCCC(C)Nc1c2ccc(Cl)cc2nc2ccc(OC)cc12 (stereo unspecified) [QUINACRINE] |  |  | 14.2 nM |  | 8.13 nM | 19600 nM |
| C=C[C@H]1CN2CC[C@H]1C[C@@H]2[C@@H](O)c1ccnc2ccc(OC)cc12 [QUINIDINE] |  |  | 35.2 nM |  | 9.59 nM | 50800 nM |
| C=C[C@H]1CN2CC[C@H]1C[C@H]2[C@H](O)c1ccnc2ccc(OC)cc12 [QUININE] |  |  | 1320 nM |  | 993 nM | > 6250 nM |
| CN1CCc2cc3c(c4c2C1Cc1ccccc1-4)OCO3 (stereo unspecified) [ROEMERINE] |  |  | 112 nM |  | 93.1 nM | 22300 nM |
| O=C(O)[C@@H]1C[C@H](CP(=O)(O)O)CCN1 [SELFOTEL] |  |  | > 1210 nM |  | 1320 nM | > 5060 nM |
| CCCCCCCCNC(C)C(O)c1ccc(SC(C)C)cc1 (stereo unspecified) [SULOCTIDIL] |  |  | 603 nM |  | 82.4 nM | 10500 nM |
| c1ccc(-c2cccc(-c3ccccn3)n2)nc1 [TERPYRIDINE] |  |  | 39.2 nM |  | 154 nM | 12600 nM |
| CC(/C=C/C(=O)NO)=C\[C@@H](C)C(=O)c1ccc(N(C)C)cc1 [TRICHOSTATIN] |  |  | 171 nM |  | 200 nM | 1590 nM |
| O=C1c2ccccc2-n2c1nc1ccccc1c2=O [TRYPTANTHRIN] |  |  | 276 nM |  | 212 nM | > 10000 nM |
| COc1cc2c3c(c4cc(OC)c(OC)cc4c2cc1OC)CN1CCC[C@@H]1C3 [TYLOPHORINE] |  |  | 963 nM |  | > 509 nM | > 7910 nM |
| COc1cc2c(Nc3ccc(Br)cc3F)ncnc2cc1OCC1CCN(C)CC1 [VANDETANIB] |  |  | 1600 nM |  | 1920 nM | 37200 nM |
